In article PMC10924921, “Mi-2β promotes immune evasion in melanoma by activating EZH2 methylation” (Nature Communications, 2024):

How the values were obtained:
Experiment in all cases: biochemical
Design in all cases: KINOMEscan active-site competition binding panel (468 kinase assays), per cent of control at 1000 nM
Conditions in all cases: KINOMEscan per cent of control (binding competition); read-out: Percent Control
TAK1 = target: T1, TAK1 (Homo sapiens, UniProt O43318)
T1 construct: gene MAP3K7
Description: (§1) Figure S7 / Percent Control

LZK = target: T2, LZK (Homo sapiens, UniProt O43283)
T2 construct: gene MAP3K13
Description: as §1

RIPK4 = RIPK4 (Homo sapiens, UniProt P57078)
Description: as §1

p38-gamma = target: T3, p38-gamma (Homo sapiens, UniProt P53778)
T3 construct: gene MAPK12
Description: as §1

NEK4 = NEK4 (Homo sapiens, UniProt P51957)
Description: as §1

IRAK3 = IRAK3 (Homo sapiens, UniProt Q9Y616)
Description: as §1

PIP5K1C = PIP5K1C (Homo sapiens, UniProt O60331)
Description: as §1

EPHA3 = EPHA3 (Homo sapiens, UniProt P29320)
Description: as §1

CAMK1D = CAMK1D (Homo sapiens, UniProt Q8IU85)
Description: as §1

MAPKAPK2 = MAPKAPK2 (Homo sapiens, UniProt P49137)
Description: as §1

FGFR3(G697C) = FGFR3(G697C) (Homo sapiens, UniProt P22607, G697C)
Description: as §1

ADCK3 = target: T4, ADCK3 (Homo sapiens, UniProt Q8NI60)
T4 construct: gene COQ8A
Description: as §1

SRPK3 = SRPK3 (Homo sapiens, UniProt Q9UPE1)
Description: as §1

ULK1 = ULK1 (Homo sapiens, UniProt O75385)
Description: as §1

CAMKK1 = CAMKK1 (Homo sapiens, UniProt Q8N5S9)
Description: as §1

DDR2 = DDR2 (Homo sapiens, UniProt Q16832)
Description: as §1

NEK2 = NEK2 (Homo sapiens, UniProt P51955)
Description: as §1

LIMK2 = LIMK2 (Homo sapiens, UniProt P53671)
Description: as §1

MARK1 = MARK1 (Homo sapiens, UniProt Q9P0L2)
Description: as §1

ERBB2 = ERBB2 (Homo sapiens, UniProt P04626)
Description: as §1

MKNK1 = MKNK1 (Homo sapiens, UniProt Q9BUB5)
Description: as §1

IRAK4 = IRAK4 (Homo sapiens, UniProt Q9NWZ3)
Description: as §1

DAPK3 = DAPK3 (Homo sapiens, UniProt O43293)
Description: as §1

CSNK1D = CSNK1D (Homo sapiens, UniProt P48730)
Description: as §1

LATS1 = LATS1 (Homo sapiens, UniProt O95835)
Description: as §1

MAPKAPK2, sequence (P49137 whole entry): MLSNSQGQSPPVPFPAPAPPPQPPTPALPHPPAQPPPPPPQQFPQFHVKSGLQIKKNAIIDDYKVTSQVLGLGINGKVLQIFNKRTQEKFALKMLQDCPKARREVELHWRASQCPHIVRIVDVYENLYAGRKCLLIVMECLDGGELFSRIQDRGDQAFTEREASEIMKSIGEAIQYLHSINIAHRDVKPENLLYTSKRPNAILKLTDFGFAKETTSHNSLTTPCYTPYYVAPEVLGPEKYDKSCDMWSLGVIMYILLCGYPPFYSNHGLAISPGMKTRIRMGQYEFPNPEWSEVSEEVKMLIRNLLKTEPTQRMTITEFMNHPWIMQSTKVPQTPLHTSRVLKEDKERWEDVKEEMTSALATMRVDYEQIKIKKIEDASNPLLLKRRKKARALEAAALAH
T3 sequence (P53778 whole entry): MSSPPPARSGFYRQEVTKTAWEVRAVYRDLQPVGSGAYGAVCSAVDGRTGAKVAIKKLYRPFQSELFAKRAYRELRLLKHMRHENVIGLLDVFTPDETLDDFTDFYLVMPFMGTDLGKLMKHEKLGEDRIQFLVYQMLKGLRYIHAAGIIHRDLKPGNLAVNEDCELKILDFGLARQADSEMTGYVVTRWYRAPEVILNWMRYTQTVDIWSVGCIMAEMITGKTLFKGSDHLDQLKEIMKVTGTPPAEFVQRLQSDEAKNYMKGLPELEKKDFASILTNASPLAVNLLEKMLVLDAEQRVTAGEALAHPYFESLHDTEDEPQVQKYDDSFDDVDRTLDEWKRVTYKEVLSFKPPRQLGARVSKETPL
T4 sequence (Q8NI60 whole entry): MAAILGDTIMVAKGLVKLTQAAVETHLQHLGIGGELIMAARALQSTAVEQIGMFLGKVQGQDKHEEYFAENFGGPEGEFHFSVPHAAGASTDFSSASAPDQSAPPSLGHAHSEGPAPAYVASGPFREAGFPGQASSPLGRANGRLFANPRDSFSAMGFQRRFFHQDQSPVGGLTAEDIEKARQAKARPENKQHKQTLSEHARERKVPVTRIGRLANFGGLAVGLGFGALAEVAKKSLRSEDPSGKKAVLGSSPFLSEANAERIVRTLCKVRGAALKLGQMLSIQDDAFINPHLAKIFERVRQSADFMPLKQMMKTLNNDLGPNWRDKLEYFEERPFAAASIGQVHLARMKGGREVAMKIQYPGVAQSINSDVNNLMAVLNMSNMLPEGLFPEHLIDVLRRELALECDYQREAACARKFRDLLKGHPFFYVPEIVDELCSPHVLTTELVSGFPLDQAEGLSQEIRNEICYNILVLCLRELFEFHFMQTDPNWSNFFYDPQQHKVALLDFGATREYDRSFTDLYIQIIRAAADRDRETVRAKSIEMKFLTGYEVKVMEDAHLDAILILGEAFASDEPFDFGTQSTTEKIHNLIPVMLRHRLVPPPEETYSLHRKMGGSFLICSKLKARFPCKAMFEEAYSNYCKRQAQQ
LIMK2, sequence (P53671 whole entry): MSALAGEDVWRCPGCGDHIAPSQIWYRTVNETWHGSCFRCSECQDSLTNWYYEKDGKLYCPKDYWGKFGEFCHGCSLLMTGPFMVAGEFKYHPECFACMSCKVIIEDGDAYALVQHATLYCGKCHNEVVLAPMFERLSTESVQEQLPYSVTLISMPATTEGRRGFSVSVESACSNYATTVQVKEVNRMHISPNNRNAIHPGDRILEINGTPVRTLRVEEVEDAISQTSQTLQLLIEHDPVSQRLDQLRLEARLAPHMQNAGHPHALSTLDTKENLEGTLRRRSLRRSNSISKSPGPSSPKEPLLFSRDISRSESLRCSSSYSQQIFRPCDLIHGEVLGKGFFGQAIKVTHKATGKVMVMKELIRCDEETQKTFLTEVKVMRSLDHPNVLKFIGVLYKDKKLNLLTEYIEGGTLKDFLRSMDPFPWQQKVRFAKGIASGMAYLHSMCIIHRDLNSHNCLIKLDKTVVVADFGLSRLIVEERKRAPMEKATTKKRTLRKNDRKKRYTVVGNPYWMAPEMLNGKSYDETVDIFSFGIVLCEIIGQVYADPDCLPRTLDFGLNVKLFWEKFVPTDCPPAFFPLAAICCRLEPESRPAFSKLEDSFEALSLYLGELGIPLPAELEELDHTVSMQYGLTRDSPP
CAMKK1, sequence (Q8N5S9 whole entry): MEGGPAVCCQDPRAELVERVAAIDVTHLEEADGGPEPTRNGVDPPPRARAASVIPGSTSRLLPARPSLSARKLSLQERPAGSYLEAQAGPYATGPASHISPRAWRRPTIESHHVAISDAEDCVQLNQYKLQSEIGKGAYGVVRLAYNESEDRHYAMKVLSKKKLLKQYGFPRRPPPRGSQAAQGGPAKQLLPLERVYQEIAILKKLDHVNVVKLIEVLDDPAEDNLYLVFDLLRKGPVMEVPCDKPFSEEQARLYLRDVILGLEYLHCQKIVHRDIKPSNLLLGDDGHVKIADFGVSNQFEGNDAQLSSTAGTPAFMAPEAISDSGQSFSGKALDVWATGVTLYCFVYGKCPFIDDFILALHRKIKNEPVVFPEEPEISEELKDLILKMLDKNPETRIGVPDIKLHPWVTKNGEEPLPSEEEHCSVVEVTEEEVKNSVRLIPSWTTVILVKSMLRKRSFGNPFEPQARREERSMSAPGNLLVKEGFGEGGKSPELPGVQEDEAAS
PIP5K1C, sequence (O60331 whole entry): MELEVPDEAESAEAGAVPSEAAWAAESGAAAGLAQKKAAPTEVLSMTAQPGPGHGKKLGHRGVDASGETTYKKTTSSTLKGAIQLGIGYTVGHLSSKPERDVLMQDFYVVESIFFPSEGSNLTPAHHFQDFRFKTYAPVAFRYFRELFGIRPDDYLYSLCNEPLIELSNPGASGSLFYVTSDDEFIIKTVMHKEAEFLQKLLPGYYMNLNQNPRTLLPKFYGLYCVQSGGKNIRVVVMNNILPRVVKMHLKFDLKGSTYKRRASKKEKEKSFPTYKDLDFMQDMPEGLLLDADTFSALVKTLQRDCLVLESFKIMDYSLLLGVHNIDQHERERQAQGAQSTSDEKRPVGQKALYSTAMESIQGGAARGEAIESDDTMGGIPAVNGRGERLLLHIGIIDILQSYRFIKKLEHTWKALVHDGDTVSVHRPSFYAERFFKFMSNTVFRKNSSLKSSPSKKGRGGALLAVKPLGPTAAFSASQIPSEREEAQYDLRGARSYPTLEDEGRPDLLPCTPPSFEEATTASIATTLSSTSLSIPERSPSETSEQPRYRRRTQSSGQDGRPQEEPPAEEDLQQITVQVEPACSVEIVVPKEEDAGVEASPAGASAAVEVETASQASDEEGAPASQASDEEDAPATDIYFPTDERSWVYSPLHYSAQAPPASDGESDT
NEK2, sequence (P51955 whole entry): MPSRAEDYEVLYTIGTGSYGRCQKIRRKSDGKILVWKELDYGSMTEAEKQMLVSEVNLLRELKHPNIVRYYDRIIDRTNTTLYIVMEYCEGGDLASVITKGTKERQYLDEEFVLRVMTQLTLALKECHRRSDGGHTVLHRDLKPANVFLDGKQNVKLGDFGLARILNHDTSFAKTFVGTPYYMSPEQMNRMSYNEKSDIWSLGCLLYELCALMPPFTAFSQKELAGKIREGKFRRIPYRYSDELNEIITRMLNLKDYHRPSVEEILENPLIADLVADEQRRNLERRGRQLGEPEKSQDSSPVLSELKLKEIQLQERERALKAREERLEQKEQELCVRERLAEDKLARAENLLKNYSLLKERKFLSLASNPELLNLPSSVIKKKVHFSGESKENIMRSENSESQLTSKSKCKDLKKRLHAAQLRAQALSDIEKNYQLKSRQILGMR
T2 sequence (O43283 whole entry): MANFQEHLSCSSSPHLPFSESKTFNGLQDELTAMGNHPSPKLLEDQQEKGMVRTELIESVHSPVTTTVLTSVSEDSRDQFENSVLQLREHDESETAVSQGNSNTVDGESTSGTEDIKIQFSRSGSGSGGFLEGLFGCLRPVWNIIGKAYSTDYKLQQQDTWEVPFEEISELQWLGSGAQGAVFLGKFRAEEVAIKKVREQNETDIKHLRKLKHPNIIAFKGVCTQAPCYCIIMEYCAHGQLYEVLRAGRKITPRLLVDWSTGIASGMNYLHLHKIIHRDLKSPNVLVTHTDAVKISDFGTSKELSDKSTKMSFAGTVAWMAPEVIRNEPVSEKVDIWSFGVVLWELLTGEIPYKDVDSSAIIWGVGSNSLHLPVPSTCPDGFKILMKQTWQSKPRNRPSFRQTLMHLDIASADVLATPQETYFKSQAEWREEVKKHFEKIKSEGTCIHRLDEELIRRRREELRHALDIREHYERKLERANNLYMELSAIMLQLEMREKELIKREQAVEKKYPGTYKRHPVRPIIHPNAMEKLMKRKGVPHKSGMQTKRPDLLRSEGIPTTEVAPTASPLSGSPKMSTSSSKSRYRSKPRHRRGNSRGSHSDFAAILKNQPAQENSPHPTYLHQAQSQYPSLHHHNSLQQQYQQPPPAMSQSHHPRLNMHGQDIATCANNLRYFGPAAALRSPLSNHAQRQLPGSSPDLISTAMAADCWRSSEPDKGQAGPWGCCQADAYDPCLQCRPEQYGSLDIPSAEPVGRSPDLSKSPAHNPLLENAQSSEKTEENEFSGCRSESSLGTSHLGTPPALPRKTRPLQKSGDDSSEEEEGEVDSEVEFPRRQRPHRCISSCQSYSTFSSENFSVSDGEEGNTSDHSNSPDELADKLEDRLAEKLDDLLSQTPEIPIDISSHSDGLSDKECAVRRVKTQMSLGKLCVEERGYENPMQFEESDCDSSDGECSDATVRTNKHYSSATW
CAMK1D, sequence (Q8IU85 whole entry): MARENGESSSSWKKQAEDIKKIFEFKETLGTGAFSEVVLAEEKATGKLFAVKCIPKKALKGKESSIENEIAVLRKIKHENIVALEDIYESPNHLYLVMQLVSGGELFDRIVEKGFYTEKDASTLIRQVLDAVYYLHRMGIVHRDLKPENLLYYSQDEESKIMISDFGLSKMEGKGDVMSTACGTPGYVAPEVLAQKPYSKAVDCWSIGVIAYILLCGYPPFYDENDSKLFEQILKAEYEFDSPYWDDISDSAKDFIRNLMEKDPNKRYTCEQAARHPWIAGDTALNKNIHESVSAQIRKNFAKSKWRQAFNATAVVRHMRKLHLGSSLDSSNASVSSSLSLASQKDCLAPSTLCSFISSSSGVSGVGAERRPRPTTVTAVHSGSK

Structure (SMILES): Cn1c(=O)[nH]c2ccc(-c3cccc(C(=O)NC4CCn5ccnc5C4)c3)cc21 (stereo not shown) [Z36-MP5]
- remaining binding at 1 µM (TAK1): 84%
- remaining binding at 1 µM (LZK): 63%
- remaining binding at 1 µM (RIPK4): 99%
- remaining binding at 1 µM (p38-gamma): 78%
- remaining binding at 1 µM (NEK4): 69%
- remaining binding at 1 µM (IRAK3): 99%
- remaining binding at 1 µM (PIP5K1C): 66%
- remaining binding at 1 µM (EPHA3): 93%
- remaining binding at 1 µM (CAMK1D): 61%
- remaining binding at 1 µM (MAPKAPK2): 55%
- remaining binding at 1 µM (FGFR3(G697C)): 49%
- remaining binding at 1 µM (ADCK3): 39%
- remaining binding at 1 µM (SRPK3): 51%
- remaining binding at 1 µM (ULK1): 51%
- remaining binding at 1 µM (CAMKK1): 39%
- remaining binding at 1 µM (DDR2): 66%
- remaining binding at 1 µM (NEK2): 100%
- remaining binding at 1 µM (LIMK2): 96%
- remaining binding at 1 µM (MARK1): 92%
- remaining binding at 1 µM (ERBB2): 100%
- remaining binding at 1 µM (MKNK1): 100%
- remaining binding at 1 µM (IRAK4): 78%
- remaining binding at 1 µM (DAPK3): 89%
- remaining binding at 1 µM (CSNK1D): 98%
- remaining binding at 1 µM (LATS1): 100%
